Measurements as given in patent publication US10947241B2, “Phenyl phthalazine derivative, method for the preparation thereof, and pharmaceutical composition comprising the same” (Seoul National University Hospital, priority 2016, dated 2021).
Counter-ions that a name gives are not always drawn.

Target: hResistin (Homo sapiens (Human), UniProt Q9HD89)
Assay: Evaluation of the ability to inhibit TNF-α secretion by hResistin (THP-1 cells, ELISA)
Type: cell-based
Conditions: for inhibition at 5 µM: inhibition of TNF-α secretion by hResistin in THP-1 cells; for IC50: THP-1 human monocyte cell line, human recombinant Resistin
Experimental: Experimental Example: Evaluation of the Ability to Inhibit TNF-α Secretion by hResistin
Using THP-1 (human monocyte) cell line and ELISA system, the abilities to inhibit TNF-α secretion by hResistin (IC50) were evaluated for the compounds prepared in the above examples. The compounds target hResistin, and the abilities of the compounds to inhibit TNF-α secretion by human recombinant Resistin in human monocyte (THP-1) were evaluated. The abilities to inhibit TNF-α secretion were assessed by ELISA quantifying the amount of antibody with the enzyme as a marker using an antigen-antibody reaction.
Specifically, the cultured cells were spun down at 1,500 rpm for 2 minutes, the supernatant was removed and then the cells were re-suspended in 10 mL of complete RPMI-1640 medium. After counting the number of cells using Luna™ Automated Cell Counter, cells were plated into 96-well assay plates at 50 μL per well. The cells cultured for 24 hours were treated with the test substances in accordance with the concentration for 1 hour, and then the supernatant was collected and subjected to ELISA assay. In the ELISA assay, the absorbance at 450 nm (OD450 nm) was measured using Flexstation 3. The ability of each test substance to inhibit TNF-α secretion (IC50) and its inhibition at a concentration of 5 uM are shown in Table 1 below.

Sequence of hResistin (Q9HD89 19-108): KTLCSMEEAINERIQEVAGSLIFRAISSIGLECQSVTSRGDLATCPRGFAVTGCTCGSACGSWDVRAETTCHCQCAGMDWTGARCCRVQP

Row | SMILES | inhibition at 5 µM | IC50
1 | NC(=O)CCC(N)C(=O)N1CCN(c2nnc(-c3ccc(Cl)cc3)c3ccccc23)CC1 (stereo not drawn) [Example 84, 4-amino-5-(4-(4-(4-chlorophenyl)phthalazin-1-yl)piperazin-1-yl)-5-oxopentanamide hydrochloride] | 12.6% | 
2 | C[C@H]1CN(C(=O)C(C)(C)N)CCN1c1nnc(-c2ccc(Cl)cc2)c2ccccc12 [Example 74, (S)-2-amino-1-(4-(4-(4-chlorophenyl)phthalazin-1-yl)-3-methylpiperazin-1-yl)-2-methylpropan-1-one hydrochloride] | 38.7% | 
3 | O=C([C@@H]1CCCN1)N1CCC(c2nnc(-c3ccc(Cl)cc3)c3ccccc23)CC1 [Example 62, (S)-(4-(4-(4-chlorophenyl)phthalazin-1-yl)piperidin-1-yl)(pyrrolidin-2-yl)methanone hydrochloride] | 24.8% | 
4 | CNC1CCN(c2nnc(-c3ccc(Cl)cc3)c3ccc(Cl)cc23)C1 (stereo not drawn) [Example 89, 1-(7-chloro-4-(4-chlorophenyl)phthalazin-1-yl)-N-methylpyrrolidin-3-amine hydrochloride] | 77.9% | 1.8 µM
5 | Clc1ccc(-c2nnc(N3CCN(CC4CC4)CC3)c3ccccc23)cc1 [Example 50, 1-(4-chlorophenyl)-4-(4-(cyclopropylmethyl)piperazin-1-yl)phthalazine] | 54% | 
6 | CC(C)[C@H](N)C(=O)N1CCN(c2nnc(-c3ccc(Cl)cc3)c3ccccc23)C[C@@H]1C [Example 73, (S)-2-amino-1-((S)-4-(4-(4-chlorophenyl)phthalazin-1-yl)-2-methylpiperazin-1-yl)-3-methylbutan-1-one hydrochloride] | 53.6% | 
7 | O=C(C1CC1)N1CCC(c2nnc(-c3ccc(Cl)cc3)c3ccccc23)CC1 [Example 56, (4-(4-(4-chlorophenyl)phthalazin-1-yl)piperidin-1-yl)(cyclopropyl)methanone] | 26.2% | 
8 | O=S(=O)(C1CCCC1)N1CCN(c2nnc(-c3ccc(Cl)cc3)c3ccccc23)CC1 [Example 34, 1-(4-chlorophenyl)-4-(4-(cyclopentylsulfonyl)piperazin-1-yl)phthalazine] | 64.9% | 3 µM
9 | CCNC1CCN(c2nnc(-c3ccc(Cl)cc3)c3ccccc23)C1 (stereo not drawn) [Example 54, 1-(4-(4-chlorophenyl)phthalazin-1-yl)-N-ethylpyrrolidin-3-amine hydrochloride] | 70% | 1.9 µM
10 | CNC1CCN(c2nnc(Oc3ccc(Cl)cc3)c3ccccc23)C1 (stereo not drawn) [Example 93, 1-(4-(4-chlorophenoxy)phthalazin-1-yl)-N-methylpyrrolidin-3-amine hydrochloride] | 67.6% | 1.9 µM
11 | CNCCCN(C)c1nnc(-c2ccc(Cl)cc2)c2ccccc12 [Example 55, N1-(4-(4-chlorophenyl)phthalazin-1-yl)-N1,N3-dimethylpropane-1,3-diamine hydrochloride] | 13.1% | 
12 | N[C@@H](Cc1c[nH]cn1)C(=O)N1CCN(c2nnc(-c3ccc(Cl)cc3)c3ccccc23)CC1 [Example 76, (S)-2-amino-1-(4-(4-(4-chlorophenyl)phthalazin-1-yl)piperazin-1-yl)-3-(1H-imidazol-4-yl)propan-1-one dihydrochloride] | 28.9% | 
13 | CC(C)(N)C(=O)N1CCN(c2nnc(-c3ccc(OC(F)(F)F)cc3)c3ccccc23)CC1 [Example 103, 2-amino-2-methyl-1-(4-(4-(4-(trifluoromethoxy)phenyl)phthalazin-1-yl)piperazin-1-yl)propan-1-one hydrochloride] | 32% | 
14 | Clc1ccc(-c2nnc(N3CCC(N4CCOCC4)CC3)c3ccccc23)cc1 [Example 8, 4-(1-(4-(4-chlorophenyl)phthalazin-1-yl)piperidin-4-yl)morpholine] | 54.4% | 
15 | CNCCN(C)c1nnc(-c2ccc(Cl)cc2)c2ccccc12 [Example 53, N1-(4-(4-chlorophenyl)phthalazin-1-yl)-N1,N2-dimethylethane-1,2-diamine] | 8.7% | 
16 | C[C@@H]1CN(c2nnc(-c3ccc(Cl)cc3)c3ccccc23)CCN1C(=O)C(C)(C)N [Example 70, (R)-2-amino-1-(4-(4-(4-chlorophenyl)phthalazin-1-yl)-2-methylpiperazin-1-yl)-2-methylpropan-1-one hydrochloride] | 61.4% | 
17 | CC[C@H](C)[C@H](N)C(=O)N1CCN(c2nnc(-c3ccc(Cl)cc3)c3ccccc23)CC1 [Example 60, (2S,3S)-2-amino-1-(4-(4-(4-chlorophenyl)phthalazin-1-yl)piperazin-1-yl)-3-methylpentan-1-one hydrochloride] | 91.2% | 1.9 µM

Row | SMILES | inhibition at 5 µM | IC50
18 | OCCC1CCN(c2nnc(-c3ccc(Cl)cc3)c3ccccc23)CC1 [Example 4, 2-(1-(4-(4-chlorophenyl)phthalazin-1-yl)piperidin-4-yl)ethanol] | 40.4% | 1.6 µM
19 | CNC1CCN(c2nnc(-c3ccc(Cl)cc3)c3cc(F)ccc23)C1 (stereo not drawn) [Example 91, 1-(4-(4-chlorophenyl)-6-fluorophthalazin-1-yl)-N-methylpyrrolidin-3-amine hydrochloride] | 76.6% | 0.6 µM
20 | Clc1ccc(-c2nnc(N3CCC4CCNC4C3)c3ccccc23)cc1 (stereo not drawn) [Example 87, 1-(4-chlorophenyl)-4-(tetrahydro-1H-pyrrolo[2,3-c]pyridin-6(2H,7H,7aH)-yl)phthalazine hydrochloride] |  | 1.7 µM
21 | C[C@@H](N)C(=O)N1CCN(c2nnc(-c3ccc(Cl)cc3)c3ccccc23)CC1 [Example 36, (R)-2-amino-1-(4-(4-(4-chlorophenyl)phthalazin-1-yl)piperazin-1-yl)propan-1-one hydrochloride] | 75.8% | 2.5 µM
22 | CCOC(=O)CN1CCN(c2nnc(-c3ccc(Cl)cc3)c3ccccc23)CC1 [Example 65, ethyl 2-(4-(4-(4-chlorophenyl)phthalazin-1-yl)piperazin-1-yl)acetate] | 2.4% | 
23 | CC(C)[C@H](N)C(=O)N1CCN(c2nnc(-c3ccc(Cl)cc3)c3ccccc23)CC1(C)C [Example 69, (S)-2-amino-1-(4-(4-(4-chlorophenyl)phthalazin-1-yl)-2,2-dimethylpiperazin-1-yl)-3-methylbutan-1-one hydrochloride] | 16.1% | 
24 | CC(C)[C@H](N)C(=O)N1CCN(c2nnc(-c3ccc(Cl)cc3)c3ccccc23)C[C@H]1C [Example 71, (S)-2-amino-1-((R)-4-(4-(4-chlorophenyl)phthalazin-1-yl)-2-methylpiperazin-1-yl)-3-methylbutan-1-one hydrochloride] | 42.2% | 
25 | C[C@H]1CN(c2nnc(-c3ccc(Cl)cc3)c3ccccc23)CCN1C(=O)C(C)(C)N [Example 72, (S)-2-amino-1-(4-(4-(4-chlorophenyl)phthalazin-1-yl)-2-methylpiperazin-1-yl)-2-methylpropan-1-one hydrochloride] | 72.2% | 
26 | CC(C)(N)C(=O)N1CC=C(c2nnc(-c3ccc(Cl)cc3)c3ccccc23)CC1 [Example 44, 2-amino-1-(4-(4-(4-chlorophenyl)phthalazin-1-yl)-5,6-dihydropyridin-1(2H)-yl)-2-methylpropan-1-one hydrochloride] | 50.5% | 
27 | CC(C)(N)C(=O)N1CCC(c2nnc(-c3ccc(Cl)cc3)c3ccccc23)CC1 [Example 64, 2-amino-1-(4-(4-(4-chlorophenyl)phthalazin-1-yl)piperidin-1-yl)-2-methylpropan-1-one hydrochloride] | 23.9% | 
28 | CC(C)(N)C(=O)N1CCN(c2nnc(Oc3ccc(Cl)cc3)c3ccccc23)CC1 [Example 94, 2-amino-1-(4-(4-(4-chlorophenoxy)phthalazin-1-yl)piperazin-1-yl)-2-methylpropan-1-one hydrochloride] | 29.9% | 
29 | NC(CCC(=O)O)C(=O)N1CCN(c2nnc(-c3ccc(Cl)cc3)c3ccccc23)CC1 (stereo not drawn) [Example 86, 4-amino-5-(4-(4-(4-chlorophenyl)phthalazin-1-yl)piperazin-1-yl)-5-oxopentanoic acid hydrochloride] |  | 18 µM
30 | CC[C@H](C)[C@H](N)C(=O)N1CCC(c2nnc(-c3ccc(Cl)cc3)c3ccccc23)CC1 [Example 63, (2S,3S)-2-amino-1-(4-(4-(4-chlorophenyl)phthalazin-1-yl)piperidin-1-yl)-3-methylpentan-1-one hydrochloride] | 53.6% | 
31 | OCCN1CCN(c2nnc(-c3ccccc3)c3ccccc23)CC1 [Example 1, 2-(4-(4-phenylphthalazin-1-yl)piperazin-1-yl)ethanol] |  | 1 µM
32 | COCCN1CCN(c2nnc(-c3ccc(Cl)cc3)c3ccccc23)CC1 [Example 9, 1-(4-chlorophenyl)-4-(4-(2-methoxyethyl)piperazin-1-yl)phthalazine] |  | 3.7 µM
33 | CC(C)[C@H](N)C(=O)N1CCC(c2nnc(-c3ccc(Cl)cc3)c3ccccc23)CC1 [Example 61, (S)-2-amino-1-(4-(4-(4-chlorophenyl)phthalazin-1-yl)piperidin-1-yl)-3-methylbutan-1-one hydrochloride] | 21.2% | 
34 | CC(C)(C)C(N)C(=O)N1CCN(c2nnc(-c3ccc(Cl)cc3)c3ccccc23)CC1 (stereo not drawn) [Example 77, 2-amino-1-(4-(4-(4-chlorophenyl)phthalazin-1-yl)piperazin-1-yl)-3,3-dimethylbutan-1-one hydrochloride] | 46.7% | 
